As to `CCC(C)(C)NC(=O)c1cn(CCCSC)c2c(Cl)c(Cl)ccc12`, the melting point (in general, the temperature, or range, at which the solid turns liquid) fell in the range of 100 to 103 °C.
`CSCCCn1cc(C(=O)NCC(C)(C)C)c2ccc(Cl)c(Cl)c21` registered a melting point of 170 to 173 °C.
As for `CC(C)(C)CNC(=O)c1cn(CCCS(C)(=O)=O)c2c(Cl)c(Cl)ccc12`, the melting point lay within 208 to 211 °C.

Values taken from patent US7202268B2, “Derivatives of indole-3-carboxamide, preparation method thereof and application of same in therapeutics” (Sanofi-aventis, priority 2002, dated 2007).
